Test results published in article PMC9926234, “Iterative computational design and crystallographic screening identifies potent inhibitors targeting the Nsp3 macrodomain of SARS-CoV-2” (Proceedings of the National Academy of Sciences of the …, 2023).
Values joined by “and” are separate entries in the source; they are usually repeats but may differ in a detail not shown here. Equal values may be shown once. Read-outs that look alike come from different tables or passages of the source.

Experiments:
[1] = biological target: T1, SARS-CoV-2 NSP3 Mac1 (Severe acute respiratory syndrome coronavirus 2, UniProt P0DTD1); assay: biochemical; type: binding; conditions: for Ki: Ki estimation from HTRF-derived IC50, Cheng-Prusoff, peptide 400nM, Kd 2.68µM
[2] = biological target: T1, SARS-CoV-2 NSP3 Mac1; type: binding; conditions: for Refined occupancy: ligand occupancy after refinement (phenix.refine)
[3] = biological target: T1, SARS-CoV-2 NSP3 Mac1; type: binding; design: contains a conserved macrodomain enzyme (Mac1); conditions: for Spearman est (compound concentration vs apparent Tm): DSF dose responsiveness, 1 µM nsp3 mac1, adj p given
How it was run: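 ΔTma values are thermal shifts relative to a co-located DMSO-only control, read with 5 µM Fluorescent Yellow dye. Each compound was tested in triplicate over seven concentrations (two-fold steps, top 1,000 or 100 μM). Spearman correlation of concentration versus ΔTma tested whether the shift was dose-responsive.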

[4] = test system: SARS-CoV-2 NSP3 Mac1; assay: Overall hit call (binding in crystallographic soaking or the HTRF-based binding assay)
From the text: Supplement pnas.2212931120.sd01.xlsx, sheet "Compound Summary" | column: HIT*

[5] = HTRF ADPr-peptide displacement from SARS-CoV-2 Mac1, read-out: IC50
[6] = HTRF, several values in a cell are separate determinations, read-out: IC50
[7] = PanDDA event map, 1 minus background density correction, crystal soaking of Mac1
[8] = overall hit flag: binding in crystallographic soaking or the HTRF-based binding assay
[9] = maximal thermal upshift vs DMSO control
[10] = true hit = binding in crystallographic soaking or the HTRF-based binding assay
[11] = PanDDA 1-BDC value of the event, crystal soak, compound concentration 100 mM, per dataset
[12] = crystal soak, compound concentration 100 mM, per dataset
[13] = ligand modeled in the crystal structure, crystal soak, compound concentration 100 mM, per dataset
[14] = ligand modeled from this dataset, compound concentration 100 mM, Echo dispense volume 40 or 80 nl
[15] = IC50, HTRF ADPr-peptide displacement from SARS-CoV-2 Mac1

Structure (SMILES)	IC50 [1, 5]	Ki ([1]; read-out: Ki***) [µM]	1-BDC [2, 7]	Refined occupancy ([2]; crystal soaking of Mac1)	HIT* [2, 8]	Spearman est (compound concentration vs apparent Tm) [3]	DSF max dTma [3, 9] [°C]	IC50 ([1]; HTRF, read-out: IC50) [µM]	HIT* [2, 10]	DSF max dTma ([3]; maximal thermal upshift)	1-BDC [2, 11]	PanDDA hit? [2, 12]	Modeled? [2, 13]	Modeled? [2, 14]	also measured
O=c1[nH]nc(C2CCCN(c3ncnc4[nH]ccc34)C2)o1 (stereo not shown) [Z7655]	279 µM	243	0.09	18	Y	0.22	0.6								IC50 [1, 6]: 279 µM; 1-BDC ([2]; PanDDA 1-BDC (background density correction) of the event, crystal soak 100 mM, PanDDA run dmso_34): 0.09; PanDDA hit? ([2]; crystal soak, compound concentration 100 mM, PanDDA run dmso_34, series docking_lead-like_1): TRUE; Modeled? ([2]; ligand modeled in the crystal structure, crystal soak 100 mM, PanDDA run dmso_34): TRUE
OC[C@H]1CCCN(c2ncnc3[nH]c4cc(F)ccc4c23)C1 [Z7873]	≤ 90 µM and 90 µM	78.6	0.06	12	Y	0.95	1.5								IC50 [1, 6]: 90.3 µM; 1-BDC ([2]; PanDDA event map background density correction, crystal soak, Compound_concentration 100 mM, PanDDA run dmso_34): 0.06; PanDDA hit? ([2]; crystal soak, Compound_concentration 100 mM, Echo dispense 40 nl, PanDDA run dmso_34): TRUE; Modeled? ([2]; ligand modeled in crystal structure, crystal soak, Compound_concentration 100 mM, PanDDA run dmso_34): TRUE
O=C(OCCN1CCOC1=O)c1ncnc2[nH]ccc12 [Z8207]	60 µM	52.3	0.38	76		0.99		60.1	Y	2.51 ˚C					
CNC(=O)Nc1ccc(C(=O)NC2c3ccccc3CC2C(=O)O)cc1 (stereo not shown) [Z8515]	7.9 µM	9	0.09	18	Y	0.98	3.71				0.09	TRUE	TRUE		IC50 [1, 6]: 10.3 µM
COC(=O)Nc1ccc(C(=O)NC2c3ccccc3CC2C(=O)O)cc1 (stereo not shown) [Z8531]	> 250 µM		0.04	8	Y	0.72	0.6				0.04	TRUE	TRUE		
O=C(NC1c2cccc(O)c2CC1C(=O)O)c1ccc(Nn2ccnc2)cc1 (stereo not shown) [Z8539_0011]	19 µM	16.5	0.35	70		0.18			Y	1.23 ˚C	0.25	TRUE		TRUE	
O=C(Nc1ccccc1)Nc1ccc(C(=O)NC2c3cccc(O)c3CC2C(=O)O)cc1 (stereo not shown) [Z8539_0023]			0.17	34		0.81			Y	9.9 ˚C	0.17	TRUE	TRUE		IC50 [1, 15]: 0.5 µM; Ki ([1]; Ki***): 0.4 µM; thermal upshift ([3]; DSF): 9 °C
O=C(Nc1ccc(C(=O)NCc2c(C(=O)O)sc3ccccc23)cc1)NC1CC1 [Z8539_0025]	20 µM	17.8	0.24	48		0.17		20.4	Y	0.91 ˚C	0.24	TRUE		TRUE	
O=C(Nc1ccc(C(=O)NCc2c(C(=O)O)oc3ccccc23)cc1)NC1CC1 [Z8539_0026]	84 µM	72.9	0.33	66		0.37		83.8	Y	3.52 ˚C	0.3	TRUE		TRUE	
O=C(Nc1ccc(C(=O)NCc2c(C(=O)O)[nH]c3ccccc23)cc1)NC1CC1 [Z8539_0027]			0.23	46		0.7			Y	6.22 ˚C	0.29	TRUE		TRUE	IC50 [1, 15]: 7.6 µM; Ki ([1]; Ki***): 6.6 µM
NC(=O)Nc1ccc(C(=O)NC2c3cccc(O)c3CC2C(=O)O)cc1 (stereo not shown) [Z8539_0041]		1.1	0.24	48		0.6		1.3	Y	6 ˚C	0.24	TRUE	TRUE		binding to Mac1 in the HTRF assay, result in words [1]: did not substantially change binding affinity
CC(C)NC(=O)Nc1ccc(C(=O)NC2c3cccc(O)c3CC2C(=O)O)cc1 (stereo not shown) [Z8539_0046]		0.7	0.21	42		0.49		0.8	Y	6.41 ˚C	0.23	TRUE		TRUE	binding to Mac1 in the HTRF assay, result in words [1]: did not substantially change binding affinity
CO[C@@H]1CN(c2ncnc3[nH]c4cc(F)ccc4c23)C[C@@H](CO)O1 [Z8973]															HIT* [4]: Y
COC(=O)C1(CO)CCN(c2ncnc3[nH]c4cc(F)ccc4c23)C1 (stereo not shown) [Z9556]															HIT* [4]: Y
O=C(O)CC1CN(c2ncnc3[nH]ccc23)CCO1 (stereo not shown) [Z9572]	227 µM and 234 µM	197	0.09	18	Y	0.62	0.66								IC50 [1, 6]: 227 µM; Modeled? ([2]; ligand modeled in structure, crystal soak, Compound_concentration 100 mM): TRUE
O=C(NC1c2ccccc2CC1C(=O)O)c1ccc(NC(=O)C2CC2)cc1 (stereo not shown) [Z9604]	> 250 µM		0.04	8	Y	0.76	0.79				0.04	TRUE	TRUE		
